A word on the AC50: it is the concentration at which the activity in the assay is half-maximal. For orientation: IC50 means the concentration at which inhibition is half-maximal. As a reminder, the EC50 is the midpoint of the concentration-response curve.

Results on two compounds are retold here after ChEMBL document CHEMBL1201862, “PubChem BioAssay data set” (2004).

The source made the active and inactive calls.

Assay [1] concerns the target T1, Histone-lysine N-methyltransferase NSD2 (Homo sapiens, UniProt O96028).
T1 sequence (O96028 whole entry): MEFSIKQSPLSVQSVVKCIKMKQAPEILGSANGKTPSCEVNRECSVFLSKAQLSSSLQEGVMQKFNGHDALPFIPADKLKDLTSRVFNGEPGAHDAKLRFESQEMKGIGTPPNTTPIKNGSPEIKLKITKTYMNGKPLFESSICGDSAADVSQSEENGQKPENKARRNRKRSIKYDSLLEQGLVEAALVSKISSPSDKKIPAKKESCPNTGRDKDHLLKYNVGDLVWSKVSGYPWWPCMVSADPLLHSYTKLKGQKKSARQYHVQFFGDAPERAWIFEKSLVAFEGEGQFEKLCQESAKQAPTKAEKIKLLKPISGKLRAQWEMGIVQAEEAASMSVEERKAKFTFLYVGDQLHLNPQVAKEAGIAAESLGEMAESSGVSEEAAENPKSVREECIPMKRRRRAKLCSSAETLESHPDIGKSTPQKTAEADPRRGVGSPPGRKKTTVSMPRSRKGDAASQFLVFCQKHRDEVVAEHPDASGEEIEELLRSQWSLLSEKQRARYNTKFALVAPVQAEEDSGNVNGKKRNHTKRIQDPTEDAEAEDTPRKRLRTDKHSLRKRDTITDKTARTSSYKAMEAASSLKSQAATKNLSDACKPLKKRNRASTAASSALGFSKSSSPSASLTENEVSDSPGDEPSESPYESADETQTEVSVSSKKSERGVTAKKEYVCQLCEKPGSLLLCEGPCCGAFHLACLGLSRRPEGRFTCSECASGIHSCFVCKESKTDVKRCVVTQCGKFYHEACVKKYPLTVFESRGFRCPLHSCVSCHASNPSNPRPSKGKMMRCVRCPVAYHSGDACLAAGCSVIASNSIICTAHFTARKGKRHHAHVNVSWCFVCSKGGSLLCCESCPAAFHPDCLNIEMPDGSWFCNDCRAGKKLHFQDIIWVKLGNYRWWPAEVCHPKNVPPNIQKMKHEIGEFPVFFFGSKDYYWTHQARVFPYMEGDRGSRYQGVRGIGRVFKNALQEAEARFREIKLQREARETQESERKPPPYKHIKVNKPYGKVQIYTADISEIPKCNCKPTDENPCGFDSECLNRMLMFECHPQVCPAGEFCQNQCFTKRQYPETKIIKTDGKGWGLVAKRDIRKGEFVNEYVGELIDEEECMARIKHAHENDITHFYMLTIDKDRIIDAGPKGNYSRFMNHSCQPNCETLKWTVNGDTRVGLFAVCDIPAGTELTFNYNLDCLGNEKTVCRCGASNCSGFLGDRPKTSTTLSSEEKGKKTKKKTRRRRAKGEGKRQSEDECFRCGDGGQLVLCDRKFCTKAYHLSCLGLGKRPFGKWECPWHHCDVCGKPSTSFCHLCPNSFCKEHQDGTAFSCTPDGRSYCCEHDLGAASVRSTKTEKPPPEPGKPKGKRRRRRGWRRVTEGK
In kind it is biochemical.

Assay [2] has as its target Tyrosyl-DNA phosphodiesterase 2 (Homo sapiens, UniProt O95551). The assay is described as follows: human TDP2 enzyme inhibitors, dose response, biochemical, epi absorbance, IC50 (AID 743297).
The target in assay [3] is Serine/threonine-protein phosphatase PP1-alpha catalytic subunit (Homo sapiens, UniProt P62136). The assay is described as follows: PP1 phosphatase inhibitors, dose response, biochemical, fluorescence (AID 2394).
Chain of Serine/threonine-protein phosphatase PP1-alpha catalytic subunit (P62136 whole entry): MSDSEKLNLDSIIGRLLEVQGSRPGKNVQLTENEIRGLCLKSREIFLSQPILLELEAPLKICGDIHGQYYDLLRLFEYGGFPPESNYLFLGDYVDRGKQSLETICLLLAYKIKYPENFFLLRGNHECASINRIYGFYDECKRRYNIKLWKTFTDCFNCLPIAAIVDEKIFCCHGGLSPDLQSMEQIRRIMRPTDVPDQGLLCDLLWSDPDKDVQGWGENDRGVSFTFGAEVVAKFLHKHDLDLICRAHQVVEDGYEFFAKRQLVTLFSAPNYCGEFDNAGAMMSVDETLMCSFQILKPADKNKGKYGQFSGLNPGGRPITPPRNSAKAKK
Assay [4] is described as follows: growth suppression of PTEN-null colon cells, dose response, cell-based, HCT116 PTEN knockout (AID 1047).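 Further: HCT116 colon tumor cells with PTEN knocked out; cells exposed to compound for 60 hours before readout; potency for loss of cell viability measured by luminescence.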 In kind it is functional.
A short description of assay [5]: growth suppression of beta-catenin-knockout colon cells, dose response, cell-based, HCT116, human colon tumor (AID 1045).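 Further: HCT116 colon tumor cells with beta catenin knocked out; cells exposed to compound for 60 hours.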 The format is functional.
Assay [6] has as its target T2, Apoptotic protease-activating factor 1 (Homo sapiens, UniProt O14727).
T2 sequence (O14727 whole entry): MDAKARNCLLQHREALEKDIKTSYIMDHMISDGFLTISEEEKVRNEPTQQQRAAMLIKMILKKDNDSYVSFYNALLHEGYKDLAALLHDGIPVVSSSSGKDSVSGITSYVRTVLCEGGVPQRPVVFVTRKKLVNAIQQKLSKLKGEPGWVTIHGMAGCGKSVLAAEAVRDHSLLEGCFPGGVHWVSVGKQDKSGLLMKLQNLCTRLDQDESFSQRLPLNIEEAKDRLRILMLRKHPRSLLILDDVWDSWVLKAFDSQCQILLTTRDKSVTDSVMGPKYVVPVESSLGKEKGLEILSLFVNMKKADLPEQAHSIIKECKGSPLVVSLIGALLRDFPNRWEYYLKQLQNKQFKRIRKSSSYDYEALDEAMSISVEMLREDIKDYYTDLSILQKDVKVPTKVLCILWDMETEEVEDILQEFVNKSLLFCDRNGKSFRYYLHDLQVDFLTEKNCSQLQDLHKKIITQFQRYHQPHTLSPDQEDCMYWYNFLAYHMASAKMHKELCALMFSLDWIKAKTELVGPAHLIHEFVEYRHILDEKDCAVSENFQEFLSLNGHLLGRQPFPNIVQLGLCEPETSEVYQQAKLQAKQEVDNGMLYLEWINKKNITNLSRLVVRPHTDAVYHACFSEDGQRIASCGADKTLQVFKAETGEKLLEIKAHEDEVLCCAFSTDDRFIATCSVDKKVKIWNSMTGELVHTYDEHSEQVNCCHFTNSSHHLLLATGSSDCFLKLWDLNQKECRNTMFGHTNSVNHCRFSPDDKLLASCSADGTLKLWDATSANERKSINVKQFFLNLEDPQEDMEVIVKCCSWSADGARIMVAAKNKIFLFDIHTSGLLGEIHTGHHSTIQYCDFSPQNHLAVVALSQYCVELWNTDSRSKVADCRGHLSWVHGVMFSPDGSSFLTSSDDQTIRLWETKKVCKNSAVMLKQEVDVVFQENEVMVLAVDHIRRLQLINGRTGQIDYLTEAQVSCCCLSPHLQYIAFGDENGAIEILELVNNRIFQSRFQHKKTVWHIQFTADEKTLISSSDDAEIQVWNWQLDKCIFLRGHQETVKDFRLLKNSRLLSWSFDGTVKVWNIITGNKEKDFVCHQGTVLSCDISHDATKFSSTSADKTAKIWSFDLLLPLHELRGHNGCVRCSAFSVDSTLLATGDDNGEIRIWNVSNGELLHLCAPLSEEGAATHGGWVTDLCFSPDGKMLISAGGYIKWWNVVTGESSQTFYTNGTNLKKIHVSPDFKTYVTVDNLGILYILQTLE
In kind it is functional.

The target in assay [7] is T3, Sentrin-specific protease 8 (Homo sapiens, UniProt Q96LD8).
T3 sequence (Q96LD8 whole entry): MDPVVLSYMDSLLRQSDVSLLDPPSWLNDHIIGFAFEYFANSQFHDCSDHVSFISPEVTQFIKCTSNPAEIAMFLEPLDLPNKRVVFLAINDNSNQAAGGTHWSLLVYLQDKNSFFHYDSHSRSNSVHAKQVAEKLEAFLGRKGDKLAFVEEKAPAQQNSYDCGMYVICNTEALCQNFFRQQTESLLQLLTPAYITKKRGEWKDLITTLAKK
The assay is described as follows: SENP8 protease inhibitors, SAR follow-up, biochemical, luminescence (AID 504501). The format is functional.

Chain of Tyrosyl-DNA phosphodiesterase 2 (O95551 whole entry): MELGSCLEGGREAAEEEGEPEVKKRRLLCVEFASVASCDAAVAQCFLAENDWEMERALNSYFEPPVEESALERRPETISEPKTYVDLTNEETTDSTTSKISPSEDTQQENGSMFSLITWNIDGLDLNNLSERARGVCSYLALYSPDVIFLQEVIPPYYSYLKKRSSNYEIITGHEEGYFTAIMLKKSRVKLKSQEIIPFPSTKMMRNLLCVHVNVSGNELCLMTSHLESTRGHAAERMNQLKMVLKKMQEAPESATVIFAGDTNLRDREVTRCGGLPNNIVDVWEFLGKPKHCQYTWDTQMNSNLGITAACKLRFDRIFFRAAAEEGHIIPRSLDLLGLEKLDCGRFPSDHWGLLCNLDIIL

Regarding `CCOC(=O)C1=C(COC(=O)c2ccc([N+](=O)[O-])s2)NC(=O)NC1C` (configuration not stated), the AC50 in assay [1] is 5.86 µM (active). Besides, the IC50 in assay [2] was 52.5 µM (inactive).
Turning to `Oc1cccc(/C=N/Nc2cc(N3CCCC3)nc(N3CCCC3)n2)c1`, the IC50 in assay [3] was 21.6 µM (not active); in assay [6], 1.84 µM (active); in assay [7], > 99 µM (inactive). Moreover, the figures for the EC50 in assay [4] and in assay [5] were 20.3 µM (active) and 18.8 µM (active), respectively.
